Earlier results as cited in US20220273570A1, “Self-Microemulsifying Multi-Deliverable Systems” (Quicksilver Scientific, Inc., priority 2019, published 2022).
Like-named read-outs stand apart in the source and are kept apart here.

How the values were obtained:
[1] = rats, oral
[2] = oral; extensively metabolized into glucuronide conjugate
[3] = up to
[4] = test system: human hepatoma cell line (HepG2)

COc1cc(/C=C/C(=O)CC(=O)/C=C/c2ccc(O)c(OC)c2)ccc1O [curcumin]
bioavailability of orally administered solid curcumin powder [1]: 1%

Oc1ccc(/C=C/c2cc(O)cc(O)c2)cc1 [resveratrol, 3,5,4′-trihydroxy-trans-stilbene]
bioavailability [2]: about 0.5%

O=c1c(O)c(-c2ccc(O)c(O)c2)oc2cc(O)cc(O)c12 [quercetin]
elimination half-life (after oral ingestion of quercetin containing foods or supplements): 1 to 2 h
bioavailability (humans, low and highly variable): 0-50%

C[C@]12CC[C@H](O)CC1=CC[C@@H]1[C@@H]2CC[C@]2(C)C(=O)CC[C@@H]12 [DHEA]
solubility in MCT oil ([3]; MCT oil): approximately 10 mg/mL
solubility in ethanol ([3]; ethanol): approximately 150 mg/mL

COc1cc(/C=C/C(=O)CC(=O)/C=C/c2ccc(O[C@@H]3O[C@H](C(=O)O)[C@@H](O)[C@H](O)[C@H]3O)c(OC)c2)ccc1O [curcumin-glucuronide]
effects on gene expression compared with free curcumin [4]: weaker
